Reference: a compilation of properties of binary mixtures (doi:10.1016/j.molliq.2021.118200)

Test: xn = mol fraction of the nth substance listed
Conditions: 100 kPa

CCC(=O)[O-].COCCn1cc[n+](C)c1 + O
Conditions | electrical conductivity [S/m] | viscosity [mPa·s]
288.15 K, x1 = 0.8582 | 0.278 | 88.4
288.15 K, x1 = 0.9175 | 0.201 | 104.5
288.15 K, x1 = 0.9479 | 0.169 | 113.9
293.15 K, x1 = 0.8302 | 0.362 | 61.46
293.15 K, x1 = 0.8582 | 0.324 | 66.3
293.15 K, x1 = 0.8879 | 0.289 | 72.1
293.15 K, x1 = 0.9175 | 0.254 | 78.1
293.15 K, x1 = 1 | 0.166 | 93.3
298.15 K, x1 = 0.8582 | 0.387 | 50.5
298.15 K, x1 = 0.8879 | 0.352 | 54.67
298.15 K, x1 = 0.9175 | 0.315 | 59.23
303.15 K, x1 = 0.8302 | 0.523 | 37.29
303.15 K, x1 = 0.8879 | 0.448 | 42.96
303.15 K, x1 = 0.9175 | 0.411 | 46.22
303.15 K, x1 = 0.9479 | 0.378 | 49.63
303.15 K, x1 = 1 | 0.32 | 54.2
308.15 K, x1 = 0.8302 | 0.625 | 29.69
308.15 K, x1 = 0.8582 | 0.584 | 31.71
308.15 K, x1 = 0.8879 | 0.548 | 33.88
308.15 K, x1 = 0.9175 | 0.511 | 36.42
308.15 K, x1 = 0.9479 | 0.479 | 39.09
308.15 K, x1 = 1 | 0.42 | 42.49
313.15 K, x1 = 0.8302 | 0.724 | 24.42
313.15 K, x1 = 0.8582 | 0.687 | 25.86
313.15 K, x1 = 0.8879 | 0.653 | 27.57
313.15 K, x1 = 0.9175 | 0.616 | 29.53
313.15 K, x1 = 1 | 0.532 | 33.96
318.15 K, x1 = 0.8302 | 0.881 | 18.8
318.15 K, x1 = 0.8879 | 0.799 | 21.28
318.15 K, x1 = 0.9175 | 0.759 | 22.93
318.15 K, x1 = 1 | 0.663 | 26.51

CC(=O)[O-].COCCn1cc[n+](C)c1 + O
Conditions | electrical conductivity [S/m] | viscosity [mPa·s]
288.15 K, x1 = 0.8396 | 0.351 | 74.3
288.15 K, x1 = 0.8663 | 0.313 | 76.6
288.15 K, x1 = 0.8945 | 0.278 | 78.6
288.15 K, x1 = 0.9225 | 0.244 | 80.4
288.15 K, x1 = 0.9511 | 0.215 | 82.1
288.15 K, x1 = 1 | 0.162 | 85.1
293.15 K, x1 = 0.8663 | 0.373 | 56.95
293.15 K, x1 = 0.9225 | 0.3 | 60.54
293.15 K, x1 = 0.9511 | 0.268 | 62.23
293.15 K, x1 = 1 | 0.215 | 65.09
298.15 K, x1 = 0.8396 | 0.476 | 41.38
298.15 K, x1 = 0.8663 | 0.437 | 43.06
298.15 K, x1 = 0.8945 | 0.405 | 44.51
298.15 K, x1 = 0.9225 | 0.371 | 45.75
298.15 K, x1 = 0.9511 | 0.342 | 46.93
298.15 K, x1 = 1 | 0.29 | 49.12
303.15 K, x1 = 0.8396 | 0.564 | 28.47
303.15 K, x1 = 0.8663 | 0.529 | –
303.15 K, x1 = 0.9225 | 0.466 | 34.3
303.15 K, x1 = 0.9511 | 0.439 | 35.83
303.15 K, x1 = 1 | 0.39 | 38.77
308.15 K, x1 = 0.8396 | 0.673 | 24.95
308.15 K, x1 = 0.8945 | 0.604 | 26.78
308.15 K, x1 = 0.9225 | 0.572 | 27.6
308.15 K, x1 = 0.9511 | 0.541 | 28.32
308.15 K, x1 = 1 | 0.491 | 29.64
313.15 K, x1 = 0.8396 | 0.807 | 20.97
313.15 K, x1 = 0.8663 | 0.773 | 21.65
313.15 K, x1 = 0.8945 | 0.733 | 22.3
313.15 K, x1 = 0.9225 | 0.698 | 22.87
313.15 K, x1 = 0.9511 | 0.666 | 23.4
313.15 K, x1 = 1 | 0.611 | 24.35
318.15 K, x1 = 0.8396 | 0.963 | 17.28
318.15 K, x1 = 0.8945 | 0.886 | 18.26
318.15 K, x1 = 0.9225 | 0.851 | 18.74
318.15 K, x1 = 0.9511 | 0.814 | 19.18
318.15 K, x1 = 1 | 0.759 | 19.91
